Columns and labels:
P-4E-BP1 (T37/46) = test: Cell based AlphaLISA assay, inhibition of P-4E-BP1 (T37/46) (mTORC1 substrate phosphorylation) in MDA-MB-468 cells; conditions: Homo sapiens, MDA-MB-468, 4 h, AlphaLISA, two to four hours at 37° C., read-out: pIC50 for Inhibition of mTORC1 and mTORC2 Substrate Phosphorylation, P-4E-BP1-(T37/46) (converted)
Method in brief: (§1)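 Cells are exposed to inhibitor, then the assay buffer is taken off and kit lysis buffer added. Lysates undergo AlphaLISA SureFire Ultra detection in duplicate.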

P-Akt (S473) = test: Cell based AlphaLISA assay, inhibition of P-Akt (S473) (mTORC2 substrate phosphorylation) in MDA-MB-468 cells; conditions: Homo sapiens, MDA-MB-468, 4 h, AlphaLISA, two to four hours at 37° C., read-out: pIC50 for Inhibition of mTORC1 and mTORC2 Substrate Phosphorylation, p-AKT 1/2/3 -(S473) (converted)
Method in brief: as §1

P-P70S6K (T389) = test: Cell based AlphaLISA assay, inhibition of P-P70S6K (T389) (mTORC1 substrate phosphorylation) in MDA-MB-468 cells; conditions: Homo sapiens, 4 h, AlphaLISA, two to four hours at 37° C., read-out: pIC50 for Inhibition of mTORC1 and mTORC2 Substrate Phosphorylation, P-P70S6K-(T389) (converted)
Method in brief: as §1

Structure (SMILES)	IC50 (P-4E-BP1 (T37/46)) [nM]	IC50 (P-Akt (S473)) [nM]	IC50 (P-P70S6K (T389)) [nM]
CCO[C@@H]1C[C@@H]([C@H](C)C[C@@H]2CC[C@@H](O)[C@H](OC)C2)OC(=O)[C@@H]2CCCCN2C(=O)C(=O)[C@]2(O)O[C@@H](CC[C@H]2C)C[C@H](OC)/C(C)=C/C=C/C=C/[C@@H](C)C[C@@H](C)C(=NOCc2cn(CCOCCOCCOCCOCCOCCOCCOCCOCCC(=O)NCCCCn3nc(-c4ccc5oc(N)nc5c4)c4c(N)ncnc43)nn2)[C@H](OC)[C@H](O)/C(C)=C/[C@H]1C [Example 64]	3.16 to 31.6	31.6 to 1000	< 1
CO/N=C1/C[C@@H]([C@H](C)C[C@@H]2CC[C@H](n3cc(COC(=O)NCCOCCOCCOCCC(=O)NCCOCCOCCOCCC(=O)NCCCCn4nc(-c5ccc6oc(N)nc6c5)c5c(N)ncnc54)nn3)[C@H](OC)C2)OC(=O)[C@@H]2CCCCN2C(=O)C(=O)[C@]2(O)O[C@@H](CC[C@H]2C)C[C@H](OC)/C(C)=C/C=C/C=C/[C@@H](C)C[C@@H](C)C(=O)[C@H](OC)[C@H](O)/C(C)=C/[C@H]1C [Example 153]	31.6 to 1000	> 1000	1 to 10
CCO[C@@H]1C[C@@H]([C@H](C)C[C@@H]2CC[C@H](n3cc(CCCC(=O)NCCOCCOCCOCCC(=O)NCCOCCOCCOCCC(=O)NCCCCn4nc(-c5cc6cc(O)ccc6[nH]5)c5c(N)ncnc54)nn3)[C@H](OC)C2)OC(=O)[C@@H]2CCCCN2C(=O)C(=O)[C@]2(O)O[C@@H](CC[C@H]2C)C[C@H](OC)/C(C)=C/C=C/C=C/[C@@H](C)C[C@@H](C)C(=O)[C@H](OC)[C@H](O)/C(C)=C/[C@H]1C [Example 168]	31.6 to 1000	> 1000	10 to 1000
CO[C@H]1C[C@@H]2CC[C@@H](C)[C@@](O)(O2)C(=O)C(=O)N2CCCC[C@H]2C(=O)O[C@H]([C@H](C)C[C@@H]2CC[C@@H](OCc3cccc(-c4cnc(N5CCN(C(=O)CCc6cn(CCOCCOCCOCCC(=O)NCCCCn7nc(-c8ccc9oc(N)nc9c8)c8c(N)ncnc87)nn6)CC5)nc4)c3)[C@H](OC)C2)CC(=O)[C@H](C)/C=C(\C)[C@@H](O)[C@@H](OC)C(=O)[C@H](C)C[C@H](C)/C=C/C=C/C=C/1C [Example 46]	< 3.16	3.16 to 31.6	< 1
CO[C@H]1C[C@@H]2CC[C@@H](C)[C@@](O)(O2)C(=O)C(=O)N2CCCC[C@H]2C(=O)O[C@H]([C@H](C)C[C@@H]2CC[C@H](n3cc(CCCC(=O)NCCOCCOCCOCCC(=O)NCCOCCOCCOCCC(=O)NCCCCn4nc(-c5cc6cc(O)ccc6[nH]5)c5c(N)ncnc54)nn3)[C@H](OC)C2)CC(=O)[C@H](C)/C=C(\C)[C@@H](O)[C@@H](OC)C(=O)[C@H](C)C[C@H](C)/C=C/C=C/C=C/1C [Example 131]	31.6 to 1000	31.6 to 1000	1 to 10
CO[C@H]1C[C@@H]2CC[C@@H](C)[C@@](O)(O2)C(=O)C(=O)N2CCCC[C@H]2C(=O)O[C@H]([C@H](C)C[C@@H]2CC[C@@H](OCCCCc3cn(CCOCCOCCOCCOCCOCCOCCOCCOCCC(=O)N4CCC(Cn5nc(-c6ccc7oc(N)nc7c6)c6c(N)ncnc65)C4)nn3)[C@H](OC)C2)CC(=O)[C@H](C)/C=C(\C)[C@@H](O)[C@@H](OC)C(=O)[C@H](C)C[C@H](C)/C=C/C=C/C=C/1C (stereo partly drawn) [Example 7]	< 3.16	< 3.16	< 1
CO[C@H]1C[C@@H]2CC[C@@H](C)[C@@](O)(O2)C(=O)C(=O)N2CCCC[C@H]2C(=O)O[C@H]([C@H](C)C[C@@H]2CC[C@H](n3cc(CCCC(=O)NCCOCCOCCOCCC(=O)NCCOCCOCCC(=O)NCCCCn4nc(-c5cc6cc(O)ccc6[nH]5)c5c(N)ncnc54)nn3)[C@H](OC)C2)CC(=O)[C@H](C)/C=C(\C)[C@@H](O)[C@@H](OC)C(=O)[C@H](C)C[C@H](C)/C=C/C=C/C=C/1C [Example 129]	31.6 to 1000	> 1000	1 to 10
CO[C@H]1C[C@@H]2CC[C@@H](C)[C@@](O)(O2)C(=O)C(=O)N2CCCC[C@H]2C(=O)O[C@H]([C@H](C)C[C@@H]2CC[C@@H](OCc3cccc(-c4cnc(N5CCN(S(=O)(=O)CCc6cn(CCOCCOCCOCCC(=O)NCCCCn7nc(-c8ccc9oc(N)nc9c8)c8c(N)ncnc87)nn6)CC5)nc4)c3)[C@H](OC)C2)CC(=O)[C@H](C)/C=C(\C)[C@@H](O)[C@@H](OC)C(=O)[C@H](C)C[C@H](C)/C=C/C=C/C=C/1C [Example 27]	< 3.16	3.16 to 31.6	< 1
CO[C@H]1C[C@@H]2CC[C@@H](C)[C@@](O)(O2)C(=O)C(=O)N2CCCC[C@H]2C(=O)O[C@H]([C@H](C)C[C@@H]2CC[C@H](n3cc(COC(=O)NCCOCCOCCOCCC(=O)NCCOCCOCCC(=O)NCCCCn4nc(-c5cc6cc(O)ccc6[nH]5)c5c(N)ncnc54)nn3)[C@H](OC)C2)C/C(=N/OC(C)(C)C)[C@H](C)/C=C(\C)[C@@H](O)[C@@H](OC)C(=O)[C@H](C)C[C@H](C)/C=C/C=C/C=C/1C [Example 159]	> 1000	> 1000	< 1
CCO[C@@H]1C[C@@H]([C@H](C)C[C@@H]2CC[C@H](n3cc(CCCC(=O)NCCOCCOCCOCCC(=O)NCCOCCOCCC(=O)NCCCCn4nc(-c5ccc6oc(N)nc6c5)c5c(N)ncnc54)nn3)[C@H](OC)C2)OC(=O)[C@@H]2CCCCN2C(=O)C(=O)[C@]2(O)O[C@@H](CC[C@H]2C)C[C@H](OC)/C(C)=C/C=C/C=C/[C@@H](C)C[C@@H](C)C(=O)[C@H](OC)[C@H](O)/C(C)=C/[C@H]1C [Example 165]	31.6 to 1000	> 1000	1 to 10
COC(=O)NC1C[C@@H]2CC[C@@H](C)[C@@](O)(O2)C(=O)C(=O)N2CCCC[C@H]2C(=O)O[C@H]([C@H](C)C[C@@H]2CC[C@@H](OCCCCc3cn(CCOCCOCCOCCOCCOCCOCCOCCOCCC(=O)NCCCCn4nc(-c5ccc6oc(N)nc6c5)c5c(N)ncnc54)nn3)[C@H](OC)C2)CC(=O)[C@H](C)/C=C(\C)[C@@H](O)[C@@H](OC)C(=O)[C@H](C)C[C@H](C)/C=C/C=C/C=C/1C (stereo partly drawn) [Example 38]	3.16 to 31.6	31.6 to 1000	1 to 10
CO[C@H]1C[C@@H]2CC[C@@H](C)[C@@](O)(O2)C(=O)C(=O)N2CCCC[C@H]2C(=O)O[C@H]([C@H](C)C[C@@H]2CC[C@H](n3cc(COC(=O)NCCOCCOCCOCCC(=O)NCCOCCOCCOCCOCCC(=O)NCCCCn4nc(-c5cc6cc(O)ccc6[nH]5)c5c(N)ncnc54)nn3)[C@H](OC)C2)CC(=O)[C@H](C)/C=C(\C)[C@@H](O)[C@@H](OC)C(=O)[C@H](C)C[C@H](C)/C=C/C=C/C=C/1C [Example 126]	3.16 to 31.6	31.6 to 1000	1 to 10
CO[C@H]1C[C@@H]2CC[C@@H](C)[C@@](O)(O2)C(=O)C(=O)N2CCCC[C@H]2C(=O)O[C@H]([C@H](C)C[C@@H]2CC[C@@H](O)[C@H](OC)C2)C[C@@H](O)[C@H](C)/C=C(\C)[C@@H](O)[C@@H](OC)C(=NOCc2cn(CCOCCOCCOCCOCCOCCOCCC(=O)NCCCCn3nc(-c4ccc5oc(N)nc5c4)c4c(N)ncnc43)nn2)[C@H](C)C[C@H](C)/C=C/C=C/C=C/1C [Example 51]	3.16 to 31.6	31.6 to 1000	1 to 10

From patent US20230093861A1, “RAPAMYCIN ANALOGS AS MTOR INHIBITORS” (Revolution Medicines, Inc., priority 2017, published 2023)
